Experimental data published in US9669003B2, “Use of flavone and flavanone derivatives in preparation of sedative and hypnotic drugs” (priority 2012, dated 2017).
Marks after values point to notes of the source that are not given here.

What follows are compounds tested on Kunming mice (assay: Influence on hypnosis effect with pentobarbital sodium doses below the threshold (25 mg/kg i.p.)). Settings: test drug 25 mg/kg intragastric single dose, pentobarbital sodium 25 mg/kg i.p. 60 min later, sleep observed in 30 min, n = 10.
Assay type: in vivo
Method in brief: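 Percentage of mice sleeping within 30 min after subthreshold pentobarbital sodium (25 mg/kg i.p.), defined by loss of righting reflex over 1 min, analysed by χ2. Compound in 0.5% CMC-Na given intragastrically at 25/50/100 mg/kg 60 min before; groups of 10 Kunming mice, both sexes.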

Row | SMILES | Number of sleeping animals | rate of sleeping (%)
1 | CCc1cccc2c1C(=O)CC(c1cc(F)cc(C(=O)O)c1)O2 (stereo not drawn) [Example 53] | 4 | 40* %
2 | CC=Cc1c(C(=O)O)cc2c(=O)cc(-c3ccc(F)c(C#N)c3)oc2c1C(=O)O [Example 34] | 2 | 20%
3 | COc1ccc(-c2cc(=O)c3cc(OC)c(OC)c(OC)c3o2)cc1OC [Example 27] | 5 | 50** %
4 | CC=Cc1cc(-c2cc(=O)c3c(CCCCC)cc(C(=O)O)cc3o2)cc(C(=O)O)c1C#N [Example 26] | 4 | 40* %

Same assay, conditions: test drug 50 mg/kg intragastric single dose, pentobarbital sodium 25 mg/kg i.p. 60 min later, sleep observed in 30 min, n = 10

Row | SMILES | Number of sleeping animals | rate of sleeping (%)
5 | CCc1cccc2c1C(=O)CC(c1cc(F)cc(C(=O)O)c1)O2 (stereo not drawn) [Example 53] | 6 | 60** %
6 | CC=Cc1c(C(=O)O)cc2c(=O)cc(-c3ccc(F)c(C#N)c3)oc2c1C(=O)O [Example 34] | 4 | 40* %
7 | COc1ccc(-c2cc(=O)c3cc(OC)c(OC)c(OC)c3o2)cc1OC [Example 27] | 6 | 60** %
8 | CC=Cc1cc(-c2cc(=O)c3c(CCCCC)cc(C(=O)O)cc3o2)cc(C(=O)O)c1C#N [Example 26] | 5 | 50** %

Same assay, conditions: test drug 100 mg/kg intragastric single dose, pentobarbital sodium 25 mg/kg i.p. 60 min later, sleep observed in 30 min, n = 10

Row | SMILES | Number of sleeping animals | rate of sleeping (%)
9 | CCc1cccc2c1C(=O)CC(c1cc(F)cc(C(=O)O)c1)O2 (stereo not drawn) [Example 53] | 7 | 70** %
10 | CC=Cc1c(C(=O)O)cc2c(=O)cc(-c3ccc(F)c(C#N)c3)oc2c1C(=O)O [Example 34] | 6 | 60** %
11 | COc1ccc(-c2cc(=O)c3cc(OC)c(OC)c(OC)c3o2)cc1OC [Example 27] | 7 | 70** %
12 | CC=Cc1cc(-c2cc(=O)c3c(CCCCC)cc(C(=O)O)cc3o2)cc(C(=O)O)c1C#N [Example 26] | 7 | 70** %

Each compound was assayed on Kunming mice (assay: Influence on autonomic activity of normal mice (ZIL-2 mice autonomic activity meter, counts within 10 min)). Settings: intragastric, 25 mg/kg, 1 h after administration, x ± s, n = 10.
Assay type: in vivo
Method in brief: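 Activity counts during a 10-min window were taken at 1, 2 and 24 h after dosing in groups of 10 mixed-sex Kunming mice. Compounds were given in 0.5% CMC-Na at 25, 50 or 100 mg/kg. Statistics used Levene's homogeneity test, ANOVA and Dunnett's multiple comparisons.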

Row | SMILES | Times of activities in 1 h after drug administration/10 min
13 | CCc1cccc2c1C(=O)CC(c1cc(F)cc(C(=O)O)c1)O2 (stereo not drawn) [Example 53] | 303.8 ± 67.4 /10 min
14 | CC=Cc1c(C(=O)O)cc2c(=O)cc(-c3ccc(F)c(C#N)c3)oc2c1C(=O)O [Example 34] | 292.2 ± 49.3 /10 min
15 | COc1ccc(-c2cc(=O)c3cc(OC)c(OC)c(OC)c3o2)cc1OC [Example 27] | 291.3 ± 52.1 /10 min
16 | CC=Cc1cc(-c2cc(=O)c3c(CCCCC)cc(C(=O)O)cc3o2)cc(C(=O)O)c1C#N [Example 26] | 310.7 ± 59.5 /10 min

Same assay, conditions: intragastric, 25 mg/kg, 2 h after administration, x ± s, n = 10

Row | SMILES | Times of activities in 2 h after drug administration/10 min
17 | CCc1cccc2c1C(=O)CC(c1cc(F)cc(C(=O)O)c1)O2 (stereo not drawn) [Example 53] | 283.8 ± 73.8 /10 min
18 | CC=Cc1c(C(=O)O)cc2c(=O)cc(-c3ccc(F)c(C#N)c3)oc2c1C(=O)O [Example 34] | 276.2 ± 43.8 /10 min
19 | COc1ccc(-c2cc(=O)c3cc(OC)c(OC)c(OC)c3o2)cc1OC [Example 27] | 282.2 ± 41.5 /10 min
20 | CC=Cc1cc(-c2cc(=O)c3c(CCCCC)cc(C(=O)O)cc3o2)cc(C(=O)O)c1C#N [Example 26] | 279.0 ± 32.2 /10 min

Same assay, conditions: intragastric, 25 mg/kg, 24 h after administration, x ± s, n = 10

Row | SMILES | Times of activities in 24 h after drug administration/10 min
21 | CCc1cccc2c1C(=O)CC(c1cc(F)cc(C(=O)O)c1)O2 (stereo not drawn) [Example 53] | 314.9 ± 68.9 /10 min
22 | CC=Cc1c(C(=O)O)cc2c(=O)cc(-c3ccc(F)c(C#N)c3)oc2c1C(=O)O [Example 34] | 313.2 ± 75.4 /10 min
23 | COc1ccc(-c2cc(=O)c3cc(OC)c(OC)c(OC)c3o2)cc1OC [Example 27] | 293.6 ± 82.9 /10 min
24 | CC=Cc1cc(-c2cc(=O)c3c(CCCCC)cc(C(=O)O)cc3o2)cc(C(=O)O)c1C#N [Example 26] | 313.5 ± 68.8 /10 min

Same assay, conditions: intragastric, 50 mg/kg, 1 h after administration, x ± s, n = 10

Row | SMILES | Times of activities in 1 h after drug administration/10 min
25 | CCc1cccc2c1C(=O)CC(c1cc(F)cc(C(=O)O)c1)O2 (stereo not drawn) [Example 53] | 249.3 ± 61.0 /10 min
26 | CC=Cc1c(C(=O)O)cc2c(=O)cc(-c3ccc(F)c(C#N)c3)oc2c1C(=O)O [Example 34] | 249.4 ± 62.4 /10 min
27 | COc1ccc(-c2cc(=O)c3cc(OC)c(OC)c(OC)c3o2)cc1OC [Example 27] | 169.6 ± 51.3 /10 min
28 | CC=Cc1cc(-c2cc(=O)c3c(CCCCC)cc(C(=O)O)cc3o2)cc(C(=O)O)c1C#N [Example 26] | 284.7 ± 46.1 /10 min

Same assay, conditions: intragastric, 50 mg/kg, 2 h after administration, x ± s, n = 10

Row | SMILES | Times of activities in 2 h after drug administration/10 min
29 | CCc1cccc2c1C(=O)CC(c1cc(F)cc(C(=O)O)c1)O2 (stereo not drawn) [Example 53] | 236.7 ± 60.8 /10 min
30 | CC=Cc1c(C(=O)O)cc2c(=O)cc(-c3ccc(F)c(C#N)c3)oc2c1C(=O)O [Example 34] | 263.3 ± 59.3 /10 min
31 | COc1ccc(-c2cc(=O)c3cc(OC)c(OC)c(OC)c3o2)cc1OC [Example 27] | 193.2 ± 56.4 /10 min
32 | CC=Cc1cc(-c2cc(=O)c3c(CCCCC)cc(C(=O)O)cc3o2)cc(C(=O)O)c1C#N [Example 26] | 267.1 ± 43.5 /10 min

Same assay, conditions: intragastric, 50 mg/kg, 24 h after administration, x ± s, n = 10

Row | SMILES | Times of activities in 24 h after drug administration/10 min
33 | CCc1cccc2c1C(=O)CC(c1cc(F)cc(C(=O)O)c1)O2 (stereo not drawn) [Example 53] | 297.7 ± 87.6 /10 min
34 | CC=Cc1c(C(=O)O)cc2c(=O)cc(-c3ccc(F)c(C#N)c3)oc2c1C(=O)O [Example 34] | 334.7 ± 72.3 /10 min
35 | COc1ccc(-c2cc(=O)c3cc(OC)c(OC)c(OC)c3o2)cc1OC [Example 27] | 295.7 ± 92.3 /10 min
36 | CC=Cc1cc(-c2cc(=O)c3c(CCCCC)cc(C(=O)O)cc3o2)cc(C(=O)O)c1C#N [Example 26] | 314.1 ± 82.3 /10 min

Same assay, conditions: intragastric, 100 mg/kg, 1 h after administration, x ± s, n = 10

Row | SMILES | Times of activities in 1 h after drug administration/10 min
37 | CCc1cccc2c1C(=O)CC(c1cc(F)cc(C(=O)O)c1)O2 (stereo not drawn) [Example 53] | 201.8 ± 36.6 /10 min
38 | CC=Cc1c(C(=O)O)cc2c(=O)cc(-c3ccc(F)c(C#N)c3)oc2c1C(=O)O [Example 34] | 127.8 ± 28.6 /10 min
39 | COc1ccc(-c2cc(=O)c3cc(OC)c(OC)c(OC)c3o2)cc1OC [Example 27] | 124.2 ± 39.4 /10 min
40 | CC=Cc1cc(-c2cc(=O)c3c(CCCCC)cc(C(=O)O)cc3o2)cc(C(=O)O)c1C#N [Example 26] | 263.6 ± 42.4 /10 min

Same assay, conditions: intragastric, 100 mg/kg, 2 h after administration, x ± s, n = 10

Row | SMILES | Times of activities in 2 h after drug administration/10 min
41 | CCc1cccc2c1C(=O)CC(c1cc(F)cc(C(=O)O)c1)O2 (stereo not drawn) [Example 53] | 194.8 ± 42.5 /10 min
42 | CC=Cc1c(C(=O)O)cc2c(=O)cc(-c3ccc(F)c(C#N)c3)oc2c1C(=O)O [Example 34] | 243.9 ± 40.5 /10 min
43 | COc1ccc(-c2cc(=O)c3cc(OC)c(OC)c(OC)c3o2)cc1OC [Example 27] | 138.9 ± 48.9 /10 min
44 | CC=Cc1cc(-c2cc(=O)c3c(CCCCC)cc(C(=O)O)cc3o2)cc(C(=O)O)c1C#N [Example 26] | 245.6 ± 40.8 /10 min

Same assay, conditions: intragastric, 100 mg/kg, 24 h after administration, x ± s, n = 10

Row | SMILES | Times of activities in 24 h after drug administration/10 min
45 | CCc1cccc2c1C(=O)CC(c1cc(F)cc(C(=O)O)c1)O2 (stereo not drawn) [Example 53] | 330.9 ± 73.6 /10 min
46 | CC=Cc1c(C(=O)O)cc2c(=O)cc(-c3ccc(F)c(C#N)c3)oc2c1C(=O)O [Example 34] | 298.7 ± 81.8 /10 min
47 | COc1ccc(-c2cc(=O)c3cc(OC)c(OC)c(OC)c3o2)cc1OC [Example 27] | 278.6 ± 92.7 /10 min
48 | CC=Cc1cc(-c2cc(=O)c3c(CCCCC)cc(C(=O)O)cc3o2)cc(C(=O)O)c1C#N [Example 26] | 322.6 ± 61.2 /10 min

Each compound was assayed on Kunming mice (assay: Influence on hypnosis effect with pentobarbital sodium doses at the threshold (50 mg/kg i.p.)). Settings: 25 mg/kg intragastric single dose, pentobarbital sodium 50 mg/kg i.p. 60 min later, x ± s, n = 10.
Assay type: in vivo
Method in brief: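 Pentobarbital sodium (0.3%, 50 mg/kg i.p.) injected 60 min after a single intragastric dose (25, 50, 100 mg/kg, 0.5% CMC-Na vehicle) in Kunming mice, 10 per group, sexes balanced. Onset and length of sleep (righting reflex lost over 1 min) analysed by ANOVA; sleeping incidence by χ2 test.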

Row | SMILES | duration of sleep [min] | time to sleep [min]
49 | CCc1cccc2c1C(=O)CC(c1cc(F)cc(C(=O)O)c1)O2 (stereo not drawn) [Example 53] | 39.56 ± 20.45 | 4.82 ± 1.61
50 | CC=Cc1c(C(=O)O)cc2c(=O)cc(-c3ccc(F)c(C#N)c3)oc2c1C(=O)O [Example 34] | 37.89 ± 15.21 | 4.39 ± 1.61
51 | COc1ccc(-c2cc(=O)c3cc(OC)c(OC)c(OC)c3o2)cc1OC [Example 27] | 31.32 ± 22.99 | 4.88 ± 1.89
52 | CC=Cc1cc(-c2cc(=O)c3c(CCCCC)cc(C(=O)O)cc3o2)cc(C(=O)O)c1C#N [Example 26] | 23.01 ± 25.99 | 5.38 ± 2.22

Same assay, conditions: 50 mg/kg intragastric single dose, pentobarbital sodium 50 mg/kg i.p. 60 min later, x ± s, n = 10

Row | SMILES | duration of sleep [min] | time to sleep [min]
53 | CCc1cccc2c1C(=O)CC(c1cc(F)cc(C(=O)O)c1)O2 (stereo not drawn) [Example 53] | 47.28 ± 16.84 | 4.31 ± 1.84
54 | CC=Cc1c(C(=O)O)cc2c(=O)cc(-c3ccc(F)c(C#N)c3)oc2c1C(=O)O [Example 34] | 44.75 ± 21.85 | 3.87 ± 1.42
55 | COc1ccc(-c2cc(=O)c3cc(OC)c(OC)c(OC)c3o2)cc1OC [Example 27] | 60.34 ± 16.90 | 4.15 ± 1.65
56 | CC=Cc1cc(-c2cc(=O)c3c(CCCCC)cc(C(=O)O)cc3o2)cc(C(=O)O)c1C#N [Example 26] | 28.69 ± 26.56 | 5.12 ± 2.32

Same assay, conditions: 100 mg/kg intragastric single dose, pentobarbital sodium 50 mg/kg i.p. 60 min later, x ± s, n = 10

Row | SMILES | duration of sleep [min] | time to sleep [min]
57 | CCc1cccc2c1C(=O)CC(c1cc(F)cc(C(=O)O)c1)O2 (stereo not drawn) [Example 53] | 52.86 ± 19.25 | 3.61 ± 1.48
58 | CC=Cc1c(C(=O)O)cc2c(=O)cc(-c3ccc(F)c(C#N)c3)oc2c1C(=O)O [Example 34] | 54.77 ± 19.67 | 3.45 ± 1.38
59 | COc1ccc(-c2cc(=O)c3cc(OC)c(OC)c(OC)c3o2)cc1OC [Example 27] | 62.15 ± 33.37 | 3.73 ± 1.47
60 | CC=Cc1cc(-c2cc(=O)c3c(CCCCC)cc(C(=O)O)cc3o2)cc(C(=O)O)c1C#N [Example 26] | 65.28 ± 46.29 | 3.24 ± 1.16
